Experimental data: patent publication US8551999B2, “Heterocyclic compound and pharmaceutical composition thereof” (Otsuka Pharmaceutical Co., Ltd., priority 2007, dated 2013)
Counter-ions that a name gives are not always drawn.

Experiments:
[1] = test system: human chronic myelocytic leukemia cells (KU812); assay: Antiproliferative effect on cancer cells (in vitro), WST-8 assay, KU812; assay type: cell-based; settings: 5 days incubation with test compound
Procedure: The growth inhibition on human chronic myelocytic leukemia cells (KU812) was determined by a WST-8 assay according to the method of Singh A K, et al. (Cancer Lett. 1996 Oct. 1; 107(1): 109-15.). In this method, KU812 cells were seeded in RPMI 1640 medium containing 10% fetal bovine serum in a 96-well microplate and incubated at 37° C. for 24 hours in the presence of 5% carbon dioxide. Then, the test compound was added and the cells were incubated for another 5 days. After incubation, 15 μL of 5 mM WST-8 (2-(2-methoxy-4-nitrophenyl)-3-(4-nitrophenyl)-5-(2,4-disulfenyl)-2H-tetrazolium, monosodium salt) was added and the cells were incubated for 2 hours. After the 2-hour incubation, 15 μL of 1% SDS (sodium dodecyl sulfate) was added and the optical density was determined at the measurement wavelength of 450 nm and the reference wavelength of 630 nm, and the difference was calculated. The cell growth activity in each well was defined as the value determined by subtracting the OD in the control well not containing cells (the difference in absorbance between 492 nm and 690 nm) from that in the test well.
(§1) The 50% inhibitory concentration (IC50 (nM)) of the test compound was determined by comparing the cell growth activity in the well containing the test compound with that of the control not containing the test compound.

[2] = test system: human pancreatic cancer cells (HPAC); assay: Antiproliferative effect on cancer cells (in vitro), sulforhodamine B method, HPAC; assay type: cell-based; settings: 5 days incubation with test compound
Procedure: (§2) Growth inhibition of human hepatic cancer cells (HuH-7) was determined by the sulforhodamine B method based on the method of Skehan P. et al. (J Natl Cancer Inst. 1990 Jul. 4; 82(13): 1107-12). In the study, HuH-7 cells were seeded on DMEM medium containing 10% fetal bovine serum in a 96-well microplate. After 24-hour incubation at 37° C. in the presence of 5% carbon dioxide, the test compound was added and the cells were incubated for another 5 days. After incubation, a trichloroacetic acid solution was added to yield the final concentration of 10% and the cells were left to stand at 4° C. for 1 hour to fix. Then, the cells were washed with water to remove the medium and trichloroacetic acid and dried in the air. The dried cells were stored at 4° C. until they were stained with sulforhodamine B. To each well, 1% acetic acid solution containing 0.4% sulforhodamine B was added and left to stand for 20 to 30 minutes at room temperature. After discarding the supernatant, each well was washed with 1% acetic acid solution, and 10 mM Tris ([…]) solution was added while stirring to elute the dye taken into the cells. Then, the optical density was determined at the measurement wavelength of 492 nm and the reference wavelength of 690 nm, and the difference was calculated. The cell growth activity in each well was defined as the value determined by subtracting the OD in the control well not containing cells (the difference in absorbance between 492 nm and 690 nm) from that in the test well.
as §1
The growth inhibition on human pancreatic cancer cells (HPAC) was also determined by the above method using HPAC instead of HuH-7 and RPMI 1640 medium containing 10% fetal bovine serum instead of the DMEM medium containing 10% fetal bovine serum.

[3] = test system: LI90 cells, a human hepatic stellate cell line; assay: Inhibitory effect on collagen synthesis (in vitro); assay type: cell-based; settings: in the presence of recombinant human TGF-β1, 3H-proline labelled collagen in supernatant
Procedure: Inhibitory Effect on Collagen Synthesis (In Vitro)
LI90 cells, a human hepatic stellate cell line, were suspended in DMEM (Dulbecco's modified eagle medium) supplemented with 10% inactivated FBS (fetal bovine serum), seeded on a 12-well plate and cultured in a CO2 incubator (preset temperature: 37° C., preset CO2 concentration: 5%). After being cultured for 24 hours, the cells were washed with D-PBS (Dulbecco's phosphate buffered saline), placed in MEM (Eagle's minimum essential medium) supplemented with 0.1% inactivated FBS and then cultured in a CO2 incubator. After being cultured for 3 days, the cells were again washed with D-PBS, placed in MEM (Eagle's minimum essential medium) supplemented with 0.1% inactivated FBS and treated with or without a test compound in the presence of […] recombinant human TGF-β1 (transforming growth factor-β1) in a CO2 incubator for 16 hours. After the incubation, the cells were washed with D-PBS and the medium was replaced with MEM containing 0.25 mM ascorbate. A radio-labeled compound, ^3H-proline, was then added to the culture medium to radio-label the collagen proteins produced. After being cultured for 24 hours, the supernatant was collected and the collagen proteins were extracted from the supernatant as acid-soluble fractions. The amount of collagen produced was determined by measuring the radioactivity contained in the fractions. A concentration of test compound that produced 50% inhibition [IC50 value (nM)] on collagen synthesis was calculated by comparing the radioactivity count in a supernatant of test-compound-treated cells with that of untreated cells (control).

[4] = test system: human hepatic cancer cells (HuH-7); assay: Antiproliferative effect on cancer cells (in vitro), sulforhodamine B method, HuH-7; assay type: cell-based; settings: HuH-7 cells, 5 days incubation with test compound
Procedure: as §2, §1

STAT3 = assay: Inhibitory effect on IL-6-induced STAT3 phosphorylation in human myeloma cells (in vitro); assay type: cell-based; settings: U266B1 human myeloma cells, IL-6 1 ng/mL, pSTAT3 (Y705) by flow cytometry
Procedure: The inhibitory effect of the test compound on phosphorylation of STAT3 (signal transducer and activator of transcription-3) in human myeloma cells ([…]) induced by interleukin-6 (IL-6) was examined using the modified method of Tochizawa S. et al. (J Immunol Methods. 2006 Jun. 30; 313(1-2): 29-37). In the study, U266B1 cells were seeded in an RPMI 1640 medium containing 10% fetal bovine serum (FBS) in a 12-well plate and incubated at 37° C. for 2 hours in the presence of carbon dioxide. After incubation, IL-6 was added to yield the concentration of 1 ng/mL and the cells were incubated at 37° C. for 15 minutes in the presence of 5% carbon dioxide. After fixation of the cells by the addition of a buffer containing formaldehyde (Lyse/Fix Buffer, BD Biosciences) at room temperature for 10 minutes, the suspension was centrifuged to remove the supernatant and the cells were treated with ice-cold methanol for 10 minutes to improve the permeability of the cell membrane. The cells were centrifuged to remove methanol and washed twice with Dulbecco's phosphate buffered saline (D-PBS) containing 2% fetal bovine serum (FBS). A fluorescence-labeled anti-phosphorylated STAT3 (pSTAT3) antibody (Alexa Fluor 488-labeled anti-pSTAT3 (Y705) antibody, BD Biosciences) was added for staining in an ice bath for 30 minutes.
The cells were washed once with 2% FBS-containing D-PBS and suspended in 2% FBS-containing D-PBS, and the fluorescence intensity was determined using a flow cytometer (FACS Sort, BD Biosciences). The ratio of fluorescence intensity in the test group to the control group (T/C) was determined from the difference in the geometric mean of pSTAT3 fluorescence intensity between the test compound group of each concentration and the non-stimulated control group according to the following equation by defining the difference in the geometric mean of pSTAT3 fluorescence intensity between the IL-6 induced control and the non-stimulated control as 100%. T/C(%)=([…] of pSTAT3 fluorescence intensity in the cells treated with the test compound—geometric mean of pSTAT3 fluorescence intensity in non-stimulated control)/(geometric mean of fluorescence intensity of IL-6-induced pSTAT3 in the control−geometric mean of pSTAT3 fluorescence intensity in non-stimulated control)×100.
The concentration of the test compound inhibiting phosphorylation of STATS at 50% (IC50; concentration of the test compound corresponding to 50% T/C(%)) was determined using T/C(%) values at the respective concentrations and defined as the index for the inhibitory activity.

[5] = test system: Human hepatic cancer cells (HuH-7); assay: Antitumor effect on hepatic cancer cells, HuH-7 (in vivo); settings: SCID mice bearing HuH-7 tumor, 10 mg/kg/day orally, once daily, 9 consecutive days; ratio of relative tumor volume treatment/control
Procedure: Human hepatic cancer cells (HuH-7) were transplanted in SCID mice (6 females/group) and the inhibitory effect of the invention on their growth was examined. In the study, 0.2 mL of a cell suspension adjusted to contain 2.5×10^7 cells/mL was injected subcutaneously in the right axilla to prepare tumor bearing mice. When the tumor diameter became 5 mm or more, the animals were allocated to groups based on the tumor volume. The test compound was administered orally as a suspension in 5% gum arabic, once daily, for 9 consecutive days. The control group received 5% gum arabic. Tumor volumes were measured on the following day of the last administration. The relative tumor volume was determined by calculating the ratio of the tumor volume on the following day of the last administration to that at group allocation. The ratio of the relative tumor volume in the treatment group to that in the control group (T/C %) was calculated as the index for the effect. Relative tumor volume=Tumor volume on the following day of the last administration/Tumor volume at group allocation. T/C %=(Mean relative tumor volume in the treatment group/Mean relative tumor volume in the control group)×100.

Compound | IC50 ([1]; Homo sapiens, 120 h) | IC50 ([2]; Homo sapiens, 120 h) | IC50 [3] | IC50 ([4]; Homo sapiens, 120 h) | melting point | IC50 (STAT3) | IC50 [1] | IC50 [2] | IC50 [4] | T/C % [5]
Br.CC(C)Oc1ccc(CN2CCN(C(=O)c3cc4ccc(Oc5ccc(NC(=O)c6ccc(C(F)(F)F)cc6Cl)cn5)cc4n3C)CC2)cc1 [Example 253, 2-Chloro-N-(6-{2-[4-(4-isopropoxybenzyl)piperazine-1-carbonyl]-1-methyl-1H-indol-6-yloxy}pyridin-3-yl)-4-trifluoromethylbenzamide hydrobromide] | < 2 nM | < 70 nM | < 10 nM | < 10 nM | 237.2 to 238.2 °C |  |  |  |  | 
CC(C)Oc1ccc(CN2CCN(C(=O)c3cc4cc(Oc5ccc(N(C)C(=O)c6ccc(C(F)(F)F)cc6)cn5)ccc4n3C)CC2)cn1.O=C(O)/C=C\C(=O)O [Example 424, N-(6-{2-[4-(6-Isopropoxypyridin-3-ylmethyl)piperazine-1-carbonyl]-1-methyl-1H-indol-5-yloxy}pyridin-3-yl)-N-methyl-4-tri-fluoromethylbenzamide maleate] | < 2 nM | < 70 nM | < 10 nM | < 10 nM | 157 to 159 °C |  |  |  |  | 
Br.CN(C(=O)c1ccc(C(F)(F)F)cc1)c1ccc(Oc2ccc3cc(C(=O)N4CCN(Cc5ccc(OC(CF)CF)cc5)CC4)n(C)c3c2)nc1 [Example 445, N-[6-(2-{4-[4-(2-Fluoro-1-fluoromethylethoxy)benzyl]piperazine-1-carbonyl}-1-methyl-1H-indol-6-yloxy)pyridin-3-yl]-N-methyl-4-tri-fluoromethylbenzamide hydrobromide] |  |  |  |  | 230.8 to 231.4 °C | < 10 nM |  |  |  | <50%
Cc1cc(C(F)(F)F)ccc1C(=O)Nc1ccc(Oc2ccc3cc(C(=O)N4CCN(Cc5ccc(OC(CF)CF)cc5)CC4)n(C)c3c2)nc1.Cl [Example 493, N-[6-(2-{4-[4-(2-Fluoro-1-fluoromethylethoxy)benzyl]piperazine-1-carbonyl}-1-methyl-1H-indol-6-yloxy)pyridin-3-yl]-2-methyl-4-tri-fluoromethylbenzamide hydrochloride] |  |  |  |  | 192.5 to 195.4 °C | < 10 nM |  |  |  | <50%
CC(C)Oc1ccc(CN2CCN(C(=O)c3cc4ccc(Oc5ncc(N(C)C(=O)c6ccc(C(F)(F)F)cc6)cn5)cc4n3C)CC2)cc1.Cl [Example 521, N-(2-{2-[4-(4-Isopropoxybenzyl)piperazine-1-carbonyl]-1-methyl-1H-indol-6-yloxy}pyrimidin-5-yl)-N-methyl-4-trifluoromethyl-benzamide hydrochloride] | < 2 nM | < 70 nM |  | < 10 nM |  |  |  |  |  | <50%

Now from value to compound, other results behind:

IC50 ([1]; Homo sapiens, 120 h) | IC50 ([2]; Homo sapiens, 120 h) | IC50 [3] | IC50 ([4]; Homo sapiens, 120 h) | melting point | IC50 (STAT3) | IC50 [1] | IC50 [2] | IC50 [4] | Compound | T/C % [5]
< 2 nM | < 70 nM |  | < 10 nM |  | < 10 nM |  |  |  | COc1ccc(CN2CCN(C(=O)c3cc4cc(Oc5ccc(N(C)C(=O)c6ccc(C(F)(F)F)cc6)cn5)ccc4n3C)CC2)cc1 [Example 338, N-(6-{2-[4-(4-Methoxybenzyl)piperazine-1-carbonyl]-1-methyl-1H-indol-5-yloxy}pyridin-3-yl)-N-methyl-4-trifluoromethylbenzamide maleate] | 
 |  | < 10 nM |  |  |  | < 2 nM | < 70 nM | < 10 nM | Cc1c(Oc2ccc(N(C)C(=O)c3ccc(C(F)(F)F)cc3)cn2)ccc2c1cc(C(=O)N1CCN(Cc3ccc(C(C)C)cc3)CC1)n2C [Example 428, N-(6-{2-[4-(4-Isopropylbenzyl)piperazine-1-carbonyl]-1,4-dimethyl-1H-indol-5-yloxy}pyridin-3-yl)-N-methyl-4-trifluoro-methylbenzamide hydrobromide] | 
< 2 nM | < 70 nM | < 10 nM | < 10 nM | 225 to 226.4 °C | < 10 nM |  |  |  | Br.CN(C(=O)c1ccc(C(F)(F)F)cc1)c1ccc(Oc2ccc3cc(C(=O)N4CCN(Cc5ccc(OCC(F)(F)F)cc5)CC4)n(C)c3c2)nc1 [Example 436, N-Methyl-N-[6-(1-methyl-2-{4-[4-(2,2,2-trifluoroethoxy)benzyl]-piperazine-1-carbonyl}-1H-indol-6-yloxy)pyridin-3-yl]-4-tri-fluoromethylbenzamide hydrobromide] | 
